Reference: PubChem BioAssay AID2060883 (Molecular Pharmacology Branch, DTP, NCI, 2025)

System: 843782-103-R-J1-PDC complex spheroid viability
Experiment: Anticancer human tumor 843782-103-R-J1-PDC patient-derived lung adenocarcinoma cell line growth inhibition [RAS]
Settings: for IC50: curve of first compound; for viability, T/C: stronger effect = lower value
Procedure, shortened: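 Agents were tested in combination matrices in half-log decrements from a top concentration at or near clinical Cmax (10 microM if undetermined). Targets were multi-cell spheroids of tumour lines plus HUVEC and MSC stromal cells.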

[1] = second compound 0.000949 µM, first compound 0.00316 µM
[2] = second compound 0.000949 µM, first compound 0.01 µM
[3] = second compound 0.000949 µM, first compound 0.0316 µM
[4] = second compound 0.000949 µM, first compound 0.1 µM
[5] = second compound 0.000949 µM, first compound 0.316 µM
[6] = second compound 0.000949 µM, first compound 1 µM
[7] = second compound 0.003 µM, first compound 0.00316 µM
[8] = second compound 0.003 µM, first compound 0.01 µM
[9] = second compound 0.003 µM, first compound 0.0316 µM
[10] = second compound 0.003 µM, first compound 0.1 µM
[11] = second compound 0.003 µM, first compound 0.316 µM
[12] = second compound 0.003 µM, first compound 1 µM
[13] = second compound 0.00949 µM, first compound 0.00316 µM
[14] = second compound 0.00949 µM, first compound 0.01 µM
[15] = second compound 0.00949 µM, first compound 0.0316 µM
[16] = second compound 0.00949 µM, first compound 0.1 µM
[17] = second compound 0.00949 µM, first compound 0.316 µM
[18] = second compound 0.00949 µM, first compound 1 µM
[19] = second compound 0.03 µM, first compound 0.00316 µM
[20] = second compound 0.03 µM, first compound 0.01 µM
[21] = second compound 0.03 µM, first compound 0.0316 µM
[22] = second compound 0.03 µM, first compound 0.1 µM
[23] = second compound 0.03 µM, first compound 0.316 µM
[24] = second compound 0.03 µM, first compound 1 µM
[25] = second compound 0.0949 µM, first compound 0.00316 µM
[26] = second compound 0.0949 µM, first compound 0.01 µM
[27] = second compound 0.0949 µM, first compound 0.0316 µM
[28] = second compound 0.0949 µM, first compound 0.1 µM
[29] = second compound 0.0949 µM, first compound 0.316 µM
[30] = second compound 0.0949 µM, first compound 1 µM
[31] = second compound 0.3 µM, first compound 0.00316 µM
[32] = second compound 0.3 µM, first compound 0.01 µM
[33] = second compound 0.3 µM, first compound 0.0316 µM
[34] = second compound 0.3 µM, first compound 0.1 µM
[35] = second compound 0.3 µM, first compound 0.316 µM
[36] = second compound 0.3 µM, first compound 1 µM
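Further: viability read after seven days of compound exposure.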

Molecule `CC1(C)CCC(Nc2ncc(C(F)(F)F)c(-c3c[nH]c4c(P(C)(C)=O)c(C#N)ccc34)n2)CN1` (stereo unspecified) + C=CC(=O)N1CCN(c2nc(OCC3CCCN3C)nc3c(F)c(-c4nc(N)cc(C)c4C(F)(F)F)c(Cl)cc23)C(C)C1 has an IC50 (second compound 0.00316 µM) of 6.62 nM, an IC50 (second compound 0.01 µM) of 7.23 nM and an IC50 (second compound 0.0316 µM) of 7.99 nM. The IC50 (second compound 0.1 µM) was 5.81 nM, the IC50 (second compound 0.316 µM) was 6.75 nM and the IC50 (second compound 1 µM) was 6.96 nM. For the same molecule, the viability, T/C (second compound 0.00316 µM, first compound 0.000949 µM) was 85.3%, the viability, T/C (second compound 0.00316 µM, first compound 0.003 µM) was 72.8% and the viability, T/C (second compound 0.00316 µM, first compound 0.00949 µM) was 38.8%. The viability, T/C (second compound 0.00316 µM, first compound 0.03 µM) was 25.7%, the viability, T/C (second compound 0.00316 µM, first compound 0.0949 µM) was 13.6% and the viability, T/C (second compound 0.00316 µM, first compound 0.3 µM) was 21.5%. For the same molecule, the viability, T/C (second compound 0.01 µM, first compound 0.000949 µM) was 89.1%, the viability, T/C (second compound 0.01 µM, first compound 0.003 µM) was 75.6% and the viability, T/C (second compound 0.01 µM, first compound 0.00949 µM) was 42%. For the same molecule, the viability, T/C (second compound 0.01 µM, first compound 0.03 µM) was 23%, the viability, T/C (second compound 0.01 µM, first compound 0.0949 µM) was 18.5% and the viability, T/C (second compound 0.01 µM, first compound 0.3 µM) was 18.8%. The viability, T/C (second compound 0.0316 µM, first compound 0.000949 µM) was 82.7%, the viability, T/C (second compound 0.0316 µM, first compound 0.003 µM) was 81.2% and the viability, T/C (second compound 0.0316 µM, first compound 0.00949 µM) was 44.5%. The viability, T/C (second compound 0.0316 µM, first compound 0.03 µM) was 22.1%, the viability, T/C (second compound 0.0316 µM, first compound 0.0949 µM) was 20.6% and the viability, T/C (second compound 0.0316 µM, first compound 0.3 µM) was 18%. It also gave a viability, T/C (second compound 0.1 µM, first compound 0.000949 µM) of 87.8%, a viability, T/C (second compound 0.1 µM, first compound 0.003 µM) of 70% and a viability, T/C (second compound 0.1 µM, first compound 0.00949 µM) of 35.7%. It also gave a viability, T/C (second compound 0.1 µM, first compound 0.03 µM) of 18.3%, a viability, T/C (second compound 0.1 µM, first compound 0.0949 µM) of 19.3% and a viability, T/C (second compound 0.1 µM, first compound 0.3 µM) of 18.9%. It also gave a viability, T/C (second compound 0.316 µM, first compound 0.000949 µM) of 87.3%, a viability, T/C (second compound 0.316 µM, first compound 0.003 µM) of 72.7% and a viability, T/C (second compound 0.316 µM, first compound 0.00949 µM) of 40.9%. It also gave a viability, T/C (second compound 0.316 µM, first compound 0.03 µM) of 21.7%, a viability, T/C (second compound 0.316 µM, first compound 0.0949 µM) of 19.3% and a viability, T/C (second compound 0.316 µM, first compound 0.3 µM) of 19.6%. For the same molecule, the viability, T/C (second compound 1 µM, first compound 0.000949 µM) was 95.3%, the viability, T/C (second compound 1 µM, first compound 0.003 µM) was 69.8% and the viability, T/C (second compound 1 µM, first compound 0.00949 µM) was 45%. It also gave a viability, T/C (second compound 1 µM, first compound 0.03 µM) of 23.5%, a viability, T/C (second compound 1 µM, first compound 0.0949 µM) of 19.5% and a viability, T/C (second compound 1 µM, first compound 0.3 µM) of 23.7%.

`C=CC(=O)Nc1cc(Nc2nccc(-c3cn(C)c4ccccc34)n2)c(OC)cc1N(C)CCN(C)C` + CCn1c(-c2cc(N3CCN(C)CC3)cnc2C(C)OC)c2c3cc(ccc31)-c1csc(n1)CC(NC(=O)C1CC1C)C(=O)N1CCCC(N1)C(=O)OCC(C)(C)C2 gave an IC50 (second compound 0.000949 µM) of 296 nM, an IC50 (second compound 0.003 µM) of 28.9 nM and an IC50 (second compound 0.00949 µM) of less than 3.16 nM. For the same molecule, the IC50 (second compound 0.03 µM) was less than 3.16 nM, the IC50 (second compound 0.0949 µM) was less than 3.16 nM and the IC50 (second compound 0.3 µM) was less than 3.16 nM. For the same molecule, the viability, T/C [1] was 81.5%, the viability, T/C [2] was 69% and the viability, T/C [3] was 71.1%. The viability, T/C [4] was 56.2%, the viability, T/C [5] was 49.4% and the viability, T/C [6] was 41.3%. For the same molecule, the viability, T/C [7] was 60.1%, the viability, T/C [8] was 55.5% and the viability, T/C [9] was 50%. It also gave a viability, T/C [10] of 41%, a viability, T/C [11] of 33.9% and a viability, T/C [12] of 30.2%. For the same molecule, the viability, T/C [13] was 34.9%, the viability, T/C [14] was 32.6% and the viability, T/C [15] was 32.1%. It also gave a viability, T/C [16] of 25.7%, a viability, T/C [17] of 26.9% and a viability, T/C [18] of 18.3%. It also gave a viability, T/C [19] of 18.6%, a viability, T/C [20] of 19.4% and a viability, T/C [21] of 17.6%. It also gave a viability, T/C [22] of 16.9%, a viability, T/C [23] of 17.6% and a viability, T/C [24] of 14.2%. The viability, T/C [25] was 17.8%, the viability, T/C [26] was 13.2% and the viability, T/C [27] was 13.7%. The viability, T/C [28] was 15.4%, the viability, T/C [29] was 14% and the viability, T/C [30] was 12.8%. The viability, T/C [31] was 13.8%, the viability, T/C [32] was 13.2% and the viability, T/C [33] was 10.6%. It also gave a viability, T/C [34] of 11.8%, a viability, T/C [35] of 13.6% and a viability, T/C [36] of 10.4%.

`O=C(c1ccc(F)c(F)c1Nc1ccc(I)cc1F)N1CC(O)([C@@H]2CCCCN2)C1` + CCn1c(-c2cc(N3CCN(C)CC3)cnc2C(C)OC)c2c3cc(ccc31)-c1csc(n1)CC(NC(=O)C1CC1C)C(=O)N1CCCC(N1)C(=O)OCC(C)(C)C2 was tested, and the IC50 (second compound 0.000949 µM) was 18 nM, the IC50 (second compound 0.003 µM) was 4.01 nM and the IC50 (second compound 0.00949 µM) was less than 3.16 nM. The IC50 (second compound 0.03 µM) was less than 3.16 nM, the IC50 (second compound 0.0949 µM) was less than 3.16 nM and the IC50 (second compound 0.3 µM) was less than 3.16 nM. The viability, T/C [1] was 68.7%, the viability, T/C [2] was 63.4% and the viability, T/C [3] was 36.7%. For the same molecule, the viability, T/C [4] was 26.3%, the viability, T/C [5] was 19% and the viability, T/C [6] was 11%. It also gave a viability, T/C [7] of 53%, a viability, T/C [8] of 37.5% and a viability, T/C [9] of 31.5%. The viability, T/C [10] was 17.7%, the viability, T/C [11] was 11.7% and the viability, T/C [12] was 10.3%. For the same molecule, the viability, T/C [13] was 30%, the viability, T/C [14] was 19.3% and the viability, T/C [15] was 16.9%. It also gave a viability, T/C [16] of 10.9%, a viability, T/C [17] of 9.55% and a viability, T/C [18] of 7.11%. It also gave a viability, T/C [19] of 14.8%, a viability, T/C [20] of 15.3% and a viability, T/C [21] of 10.1%. For the same molecule, the viability, T/C [22] was 8.81%, the viability, T/C [23] was 8.18% and the viability, T/C [24] was 9.08%. For the same molecule, the viability, T/C [25] was 13%, the viability, T/C [26] was 10.8% and the viability, T/C [27] was 9.11%. The viability, T/C [28] was 7.24%, the viability, T/C [29] was 7.61% and the viability, T/C [30] was 8.33%. It also gave a viability, T/C [31] of 10.4%, a viability, T/C [32] of 8.56% and a viability, T/C [33] of 7.38%. The viability, T/C [34] was 6.95%, the viability, T/C [35] was 8.88% and the viability, T/C [36] was 5.35%.
